# According to patent US5215991A, “Combination of selective alpha-adrenergic agonists and Na^+ /H^+ e x” (priority 1990, dated 1993):
# pKi: −log10 of the molar value.
# Key:
# [1] = test system: New Zealand White rabbits with normotensive IOP; test: Intraocular pressure (IOP) after topical ocular administration in normotensive New Zealand White rabbits; type: in vivo, New Zealand White rabbit; conditions: for ocular hypotensive response to the alpha2 agonist after pretreatment with the Na+/H+ exchange inhibitor: pretreatment with Na+/H+ exchange inhibitor (1%) 30 min before the alpha2 agonist, FIGS. 2-4; for ΔIOP at 1 Hr., (X + p) / ΔIOP at 3 Hr., (X + p): Na+/H+ inhibitor X (1%) followed 30 min later by p-amino clonidine (0.1%), mean change from pre-drug level; for ΔIOP at 1 Hr., (X + p): 1 hour post p-amino clonidine; for ΔIOP at 3 Hr., (X + p): 3 hours post p-amino clonidine; for IOP change, amiloride analog administered alone: amiloride analogs alone, Example 2; for ΔIOP at 1 Hr., (X + p) - p / ΔIOP at 3 Hr., (X + p) - p: difference between X (1%) + p-amino clonidine (0.1%) and p-amino clonidine alone
# Method: Ocular co-administration of an alpha2 agonist and a Na^+ /H^+ exchange inhibitor to effect lowering of IOP was experimentally tested in the New Zealand White rabbit.
# The effect of co-administrating of alpha2 agonists and a Na^+ /H^+ exchange inhibitor on lowering IOP was testing in New Zealand White rabbits with normotensive IOP and weighing 3-4 kg. Topical anesthesia was produced by instillation of about 5 μl of […].
# Separate solution of various alpha2 agonists and a Na^+ /H^+ exchange inhibitor were prepared by dissolving the specified quantity of agonists or the Na^+ /H^+ exchange inhibitor in distilled water to obtain the concentrations shown below in Table III. The pH of the final solutions ranged from about 4 to about 7.5 as indicated by the characteristics of the individual drugs.
# The animals were divided into 2 groups. One group was treated with the Na^+ /H^+ exchange inhibitor followed by an alpha2 agonist and the other group received vehicle followed by the alpha2 agonist. Intraocular pressure (IOP) was measured in both eyes for each animal using a calibrated DIGILAB® pneumatonograph. […] Thirty minutes after application of the Na^+ /H^+ exchange inhibitor or vehicle, IOP was again measured for the eye. Immediately following these measurements, 50 μl of one of the alpha2 agonists solution given in Table III was administered to the test eye in the same manner described above. Thereafter, IOP measurements for each eye of each animal were made at 30 minutes after administration of the alpha2 agonist, then hourly for 6 hours. In separate experiments, the IOP response to the Na^+ /H^+ exchange inhibitor alone was determined.
# In another series of experiments, carried out in substantially the same manner as set forth in Example 1, various amiloride analogs with varying potencies at inhibiting Na^+ /H^+ exchange were co-administered with an alpha2 agonist, p-amino clonidine, and IOP determine. […] The data are expressed as mean changes from pre-drug levels.
# Na^+ /H^+ exchange = conditions: inhibition of Na+/H+ exchange in human neutrophils; data taken from Simchowitz and Cragoe, Mol. Pharmacol. 30, 112-120, 1986; cited from earlier work
compound,measurement,setting,value
"Nc1cc(Cl)c(NC2=NCCN2)c(Cl)c1 [p-amino clonidine, p-aminoclonidine]",ocular hypotensive response to the alpha2 agonist after pretreatment with the Na+/H+ exchange inhibitor,[1],augmented
CCN(c1nc(N)c(C(=O)N=C(N)N)nc1Cl)C(C)C [5-(N-ethyl-N-isopropyl) amiloride],"ΔIOP at 1 Hr., (X + p)",[1],-7.2 mmHg
same,"ΔIOP at 3 Hr., (X + p)",[1],-5.7 mmHg
same,"IOP change, amiloride analog administered alone",[1],substantially inactive
same,"ΔIOP at 1 Hr., (X + p) - p",[1],-10.2 mmHg
same,"ΔIOP at 3 Hr., (X + p) - p",[1],-7.4 mmHg
same,IOP response to the Na+/H+ exchange inhibitor alone,"[1]; three concentrations (0.1, 0.3, 1%), topical, FIG. 1",did not significantly alter IOP
same,pKi,Na^+ /H^+ exchange,6.44
Brc1c(NC2=NCCN2)ccc2nccnc12 [5-bromo-6-(2-imidazolidine-2-ylamino)quinoxaline],ocular hypotensive response to the alpha2 agonist after pretreatment with the Na+/H+ exchange inhibitor,[1],augmented
"CN(C)c1nc(N)c(C(=O)N=C(N)N)nc1Cl [5-(N,N-dimethyl) amiloride]","ΔIOP at 1 Hr., (X + p)",[1],+1.8 mmHg
same,"ΔIOP at 3 Hr., (X + p)",[1],+0.7 mmHg
same,"IOP change, amiloride analog administered alone",[1],substantially inactive
same,"ΔIOP at 1 Hr., (X + p) - p",[1],-1.2 mmHg
same,"ΔIOP at 3 Hr., (X + p) - p",[1],-1.9 mmHg
same,pKi,Na^+ /H^+ exchange,5.16
N=C(N)NC(=O)c1nc(Cl)c(N)nc1N [Amiloride],"ΔIOP at 1 Hr., (X + p)",[1],+3.0 mmHg
same,"ΔIOP at 3 Hr., (X + p)",[1],+2.6 mmHg
same,"ΔIOP at 1 Hr., (X + p) - p",[1],+0.2 mmHg
same,"ΔIOP at 3 Hr., (X + p) - p",[1],+0.6 mmHg
same,pKi,Na^+ /H^+ exchange,4.08
Clc1cccc(Cl)c1N=C1NCCN1 [clonidine],ocular hypotensive response to the alpha2 agonist after pretreatment with the Na+/H+ exchange inhibitor,[1],augmented
"NC(N)=NC(=O)c1nc(Cl)c(N2CCCCCC2)nc1N [5-(N,N-hexamethylene) amiloride]","ΔIOP at 1 Hr., (X + p)",[1],-8.6 mmHg
same,"ΔIOP at 3 Hr., (X + p)",[1],-7.5 mmHg
same,"IOP change, amiloride analog administered alone",[1],substantially inactive
same,"ΔIOP at 1 Hr., (X + p) - p",[1],-11.6 mmHg
same,"ΔIOP at 3 Hr., (X + p) - p",[1],-10.1 mmHg
same,pKi,Na^+ /H^+ exchange,6.80
